Source: PMC9696794, “Synthesis and Antimicrobial Activity of Short Analogues of the Marine Antimicrobial Peptide Turgencin A: Effects of SAR Optimizations, Cys-Cys Cyclization and Lipopeptide Modifications” (International Journal of Molecular Sciences, 2022)
≈ marks a conversion by molar mass, not a printed value. Where a SMILES comes first, the peptide text is derived from it. Bridges are numbered along the chain shown (N, C = ends). The star is where a group is joined. Lauroyl = CCCCCCCCCCCC(=O)*; Decanoyl = CCCCCCCCCC(=O)*

Key:
[1] = system: B. subtilis (Bs, ATCC 23857); test: microbe, parasite or virus in culture; format: cell-based, Bacillus subtilis; details: ATCC 23857, 24 h
Outline: (§1)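 Cultures grown in Mueller–Hinton broth were adjusted by OD600 to 2.5–3 × 10^4 CFU/mL and mixed with two-fold peptide dilutions from 256 to 1 µg/mL. Plates were incubated at 35 °C with OD595 monitored every hour for 24 h.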

[2] = system: C. glutamicum (Cg, ATCC 13032); test: microbe, parasite or virus in culture; format: cell-based, Corynebacterium glutamicum; details: ATCC 13032, 24 h
Outline: as §1

[3] = system: S. aureus (Sa, ATCC 9144); test: microbe, parasite or virus in culture; format: cell-based, Staphylococcus aureus; details: ATCC 9144, 24 h
Outline: as §1

[4] = system: S. epidermidis RP62A (Se, ATCC 35984); test: microbe, parasite or virus in culture; format: cell-based, Staphylococcus epidermidis; details: ATCC 35984, 24 h
Outline: as §1

E. coli (Ec, ATCC 25922) = test: microbe, parasite or virus in culture; format: cell-based, Escherichia coli; details: ATCC 25922, 24 h
Outline: as §1

[5] = system: P. aeruginosa (Pa, ATCC 27853); test: microbe, parasite or virus in culture; format: cell-based, Pseudomonas aeruginosa; details: ATCC 27853, 24 h
Outline: as §1

all bacterial strains = test: Antibacterial MIC assay, all bacterial strains together (range or geometric mean); format: cell-based; details: for GM (geometric mean of the MIC values against all bacterial strains): Table 1, six bacterial strains; for GM of MIC Tot. bact.: Table S3, all bacterial test strains, MIC >256 set to 256
Outline: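 Broth microdilution in Mueller–Hinton broth against B. subtilis, C. glutamicum, S. aureus, S. epidermidis RP62A, E. coli and P. aeruginosa; inoculum 2.5–3 × 10^4 CFU/mL, 35 °C, OD595 read hourly for 24 h. MIC: lowest peptide concentration giving OD below 10% of growth control; geometric mean across strains, triplicate.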

A. pullulans (Ap) = test: microbe, parasite or virus in culture; format: cell-based, Aurobasidium pollulans; details: 48 h
Outline: (§2)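 Overnight cultures in potato dextrose broth with 2% glucose at 25–30 °C were diluted to approx. 4 × 10^5 spores/mL and mixed 1:1 with two-fold peptide dilutions plated at 256 to 1 µg/mL. After 48 h at room temperature, OD600 was read. MIC was the lowest concentration giving OD below 10% of the growth control, in triplicate.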

[6] = system: C. albicans (Ca, ATCC 10231); test: microbe, parasite or virus in culture; format: cell-based, Candida albicans; details: ATCC 10231, 48 h
Outline: as §2

Rhodotorula sp. (Rh) = test: microbe, parasite or virus in culture; format: cell-based; details: 48 h
Outline: as §2

[7] = system: human red blood cells (RBC); test: Haemolytic activity assay; format: cell-based; details: for Selectivity index (SI) G- / Selectivity index (SI) G+ / Selectivity index (SI) Fungi: Table S3, highest tested concentration used where EC50 above it; for Selectivity index (SI) G-: EC50/GM of Gram-negative strains; for Selectivity index (SI) G+: EC50/GM of Gram-positive strains; for Selectivity index (SI) Fungi: EC50/GM of fungi; for SI (selectivity index = EC50/GM): haemolytic EC50 over GM of MIC against all bacterial strains, Table 1; for RBC Tox. (EC50), haemolytic activity: human RBC, 1 h, 37 °C, concentration giving 50% haemolysis
Outline: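 Washed human erythrocytes (1% hematocrit final) incubated 1 h at 37 °C with agitation with lipopeptides at 500–3.9 μM in PBS (≤1% DMSO), duplicates. Haemoglobin release read at 545 nm relative to 0.1% Triton X-100; EC50 is 50% haemolysis, averaged from three experiments.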

[8] = system: E. coli MC4100 (wild type, WT); test: microbe, parasite or virus in culture; details: wild type
Outline: (§3)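 Broth microdilution in Mueller–Hinton medium, 2.5–3 × 10^4 CFU/mL inoculum, two-fold peptide dilutions from 256 to 1 µg/mL, 35 °C with OD595 read hourly for 24 h. MIC is the lowest concentration giving OD below 10% of the untreated growth control; run in triplicate.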

[9] = system: E. coli NR698 (outer membrane permeable mutant, imp4213); test: microbe, parasite or virus in culture; details: MC4100 NR698 imp4213, deficient outer membrane
Outline: as §3

[10] = system: Gram-positive bacterial strains; details: Table S3; MIC >256 set to 256
Outline: as §1

[11] = system: Gram-negative bacterial strains (E. coli and P. aeruginosa); test: Antibacterial MIC assay, Gram-negative strains together (range or geometric mean); format: cell-based; details: Table S3; MIC >256 set to 256
Outline: as §1

[12] = system: fungi (A. pullulans, C. albicans, Rhodotorula sp.); test: Antifungal MIC assay, all fungi together (range or geometric mean); format: cell-based; details: Table S3; MIC >128 set to 128
Outline: as §2

Row | SMILES | Antimicrobial Activity (MIC) Gram + Bs [1] | Antimicrobial Activity (MIC) Gram + Cg [2] | Antimicrobial Activity (MIC) Gram + Sa [3] | Antimicrobial Activity (MIC) Gram + Se [4] | Antimicrobial Activity (MIC) Gram − Ec (E. coli (Ec, ATCC 25922)) | Antimicrobial Activity (MIC) Gram − Pa [5] | GM (geometric mean of the MIC values against all bacterial strains) (all bacterial strains) | GM of MIC Tot. bact. (all bacterial strains) | Antimicrobial Activity (MIC) Fungi Ap (A. pullulans (Ap)) | Antimicrobial Activity (MIC) Fungi Ca [6] | Antimicrobial Activity (MIC) Fungi Rh (Rhodotorula sp. (Rh)) | Selectivity index (SI) G- [7] | Selectivity index (SI) G+ [7] | Selectivity index (SI) Fungi [7] | SI (selectivity index = EC50/GM) [7] | MIC E. coli MC4100 (WT) [8] | MIC E. coli NR698 (mutant) [9] | GM of MIC G+ [10] | GM of MIC G- [11] | GM of MIC Fungi [12] | also measured
1 | CCCCCCCCCCCC(=O)N[C@H]1CSSC[C@@H](C(=O)N[C@@H](CCCCN)C(=O)N[C@@H](CC(C)C)C(N)=O)NC(=O)[C@H](CCCCN)NC(=O)[C@H](Cc2c[nH]c3ccccc23)NC(=O)CNC(=O)[C@H](Cc2c[nH]c3ccccc23)NC(=O)[C@H](Cc2c[nH]c3ccccc23)NC(=O)[C@H](CCCCN)NC(=O)[C@H](CCCCN)NC(=O)CNC1=O [Peptide C12-cTurg-2, C12- (CGKKWWGWKC)KL-NH2] (Lauroyl-CGKKWWGWKCKL-NH2; disulfide 1-10) | 4 µg/mL | 8 µg/mL | 8 µg/mL | 8 µg/mL | 16 µg/mL | 16 µg/mL | 9 µg/mL | 9 µg/mL | 32 µg/mL | 64 µg/mL | 32 µg/mL | 2 | 5 | 1 | 4 | 8 µg/mL (≈ 4.7 µM) | 8 µg/mL (≈ 4.7 µM) | 7 µg/mL | 16 µg/mL | 40 µg/mL | RBC Tox. (EC50), haemolytic activity [7]: 32 µg/mL
2 | CC(C)C[C@H](NC(=O)[C@H](CCCNC(=N)N)NC(=O)[C@@H]1CSSC[C@H](N)C(=O)NCC(=O)N[C@@H](CCCNC(=N)N)C(=O)N[C@@H](CCCNC(=N)N)C(=O)N[C@@H](Cc2c[nH]c3ccccc23)C(=O)N[C@@H](Cc2c[nH]c3ccccc23)C(=O)NCC(=O)N[C@@H](Cc2c[nH]c3ccccc23)C(=O)N[C@@H](CCCNC(=N)N)C(=O)N1)C(N)=O [cTurg-5] (H-CGRRWWGWRCRL-NH2; disulfide 1-10; N-terminus assumed) | 8 µg/mL | 4 µg/mL | 16 µg/mL | 8 µg/mL | 8 µg/mL | 16 µg/mL | 9 µg/mL | 9 µg/mL | 32 µg/mL | 32 µg/mL | 32 µg/mL | > 97 | > 138 | > 34 | >123 | 8 µg/mL (≈ 4.9 µM) | 8 µg/mL (≈ 4.9 µM) | 8 µg/mL | 11 µg/mL | 32 µg/mL | RBC Tox. (EC50), haemolytic activity [7]: >1101 µg/mL
3 | CC(C)C[C@H](NC(=O)[C@H](CCCCN)NC(=O)[C@@H]1CSSC[C@H](N)C(=O)NCC(=O)N[C@@H](CCCCN)C(=O)N[C@@H](CCCCN)C(=O)N[C@@H](Cc2c[nH]c3ccccc23)C(=O)NCC(=O)N[C@@H](Cc2c[nH]c3ccccc23)C(=O)N[C@@H](Cc2c[nH]c3ccccc23)C(=O)N[C@@H](CCCCN)C(=O)N1)C(N)=O [cTurg-3] (H-CGKKWGWWKCKL-NH2; disulfide 1-10; N-terminus assumed) | 4 µg/mL | 4 µg/mL | 32 µg/mL | 16 µg/mL | 32 µg/mL | 128 µg/mL | 18 µg/mL | 18 µg/mL | 32 µg/mL | 32 µg/mL | 32 µg/mL | 13 | 89 | 27 | 47 | 16 µg/mL (≈ 10.5 µM) | 8 µg/mL (≈ 5.26 µM) | 10 µg/mL | 64 µg/mL | 32 µg/mL | RBC Tox. (EC50), haemolytic activity [7]: 849 µg/mL
4 | CC(C)C[C@H](NC(=O)[C@H](CCCCN)NC(=O)[C@@H]1CSSC[C@H](N)C(=O)NCC(=O)N[C@@H](CCCCN)C(=O)N[C@@H](CCCCN)C(=O)N2CCC[C@H]2C(=O)N[C@@H](Cc2c[nH]c3ccccc23)C(=O)N[C@@H](Cc2c[nH]c3ccccc23)C(=O)N[C@@H](Cc2c[nH]c3ccccc23)C(=O)N[C@@H](CCCCN)C(=O)N1)C(N)=O [cTurg-4] (H-CGKKPWWWKCKL-NH2; disulfide 1-10; N-terminus assumed) | 8 µg/mL | 4 µg/mL | 64 µg/mL | 32 µg/mL | 64 µg/mL | 256 µg/mL | 32 µg/mL | 32 µg/mL | 32 µg/mL | 64 µg/mL | 32 µg/mL | > 8 | > 67 | > 26 | >33 | 16 µg/mL (≈ 10.3 µM) | 8 µg/mL (≈ 5.13 µM) | 16 µg/mL | 128 µg/mL | 40 µg/mL | –
5 | CCCCCCCCCC(=O)N[C@H]1CSSC[C@@H](C(=O)N[C@@H](CCCCN)C(=O)N[C@@H](CC(C)C)C(N)=O)NC(=O)[C@H](CCCCN)NC(=O)[C@H](Cc2c[nH]c3ccccc23)NC(=O)CNC(=O)[C@H](Cc2c[nH]c3ccccc23)NC(=O)[C@H](Cc2c[nH]c3ccccc23)NC(=O)[C@H](CCCCN)NC(=O)[C@H](CCCCN)NC(=O)CNC1=O [Peptide C10-cTurg-2, C10- (CGKKWWGWKC)KL-NH2] (Decanoyl-CGKKWWGWKCKL-NH2; disulfide 1-10) | 2 µg/mL | 4 µg/mL | 4 µg/mL | 4 µg/mL | 8 µg/mL | 8 µg/mL | 5 µg/mL | 5 µg/mL | 32 µg/mL | 64 µg/mL | 16 µg/mL | 13 | 32 | 3 | 24 | 8 µg/mL (≈ 4.78 µM) | 4 µg/mL (≈ 2.39 µM) | 3 µg/mL | 8 µg/mL | 32 µg/mL | RBC Tox. (EC50), haemolytic activity [7]: 106 µg/mL
